Measurements from ChEMBL document CHEMBL1145159 (J Med Chem, 2005).
Several values for one entry are separate records, joined by “and”; a condition that tells them apart may be missing. Equal entries are not always repeated. Peptide text beside a SMILES is read from it.

How the values were obtained:
[1] = target: T1, Neuronal acetylcholine receptor; alpha4/beta2 (Homo sapiens, UniProt P17787+P43681); test: Effective concentration against Nicotinic acetylcholine receptor alpha4-beta2; type: protein-complex assay
[2] = target: T1, Neuronal acetylcholine receptor; alpha4/beta2; test: Maximal response against Nicotinic acetylcholine receptor alpha4-beta2; type: protein-complex assay
[3] = target: T2, Neuronal acetylcholine receptor; alpha3/beta2 (Homo sapiens, UniProt P17787+P32297); test: Effective concentration against Nicotinic acetylcholine receptor alpha3-beta2; type: protein-complex assay
[4] = target: T3, Neuronal acetylcholine receptor; alpha2/beta4 (Homo sapiens, UniProt P30926+Q15822); test: Maximal response against Nicotinic acetylcholine receptor alpha2-beta4; type: protein-complex assay
[5] = target: T4, Neuronal acetylcholine receptor; alpha4/beta4 (Homo sapiens, UniProt P30926+P43681); test: Maximal response against Nicotinic acetylcholine receptor alpha4-beta4; type: protein-complex assay
[6] = target: T5, Neuronal acetylcholine receptor; alpha3/beta4 (Homo sapiens, UniProt P30926+P32297); test: Maximal response against Nicotinic acetylcholine receptor alpha3-beta4; type: protein-complex assay
[7] = target: T2, Neuronal acetylcholine receptor; alpha3/beta2; test: Maximal response against Nicotinic acetylcholine receptor alpha3-beta2; type: protein-complex assay
[8] = target: Neuronal acetylcholine receptor subunit alpha-7 (Rattus norvegicus) (UniProt Q05941); test: Maximal response against Nicotinic acetylcholine receptor alpha 7
[9] = target: T6, Neuronal acetylcholine receptor subunit alpha-7 (Homo sapiens, UniProt P36544); test: Effective concentration against Nicotinic acetylcholine receptor alpha 7
[10] = target: T3, Neuronal acetylcholine receptor; alpha2/beta4; test: Inhibitory concentration against Nicotinic acetylcholine receptor alpha2-beta4; type: protein-complex assay
[11] = target: T6, Neuronal acetylcholine receptor subunit alpha-7; test: Inhibitory concentration against Nicotinic acetylcholine receptor alpha 7
[12] = target: T2, Neuronal acetylcholine receptor; alpha3/beta2; test: Inhibitory concentration against Nicotinic acetylcholine receptor alpha3-beta2; type: protein-complex assay
[13] = target: T1, Neuronal acetylcholine receptor; alpha4/beta2; test: (§1) Inhibitory concentration against Nicotinic acetylcholine receptor alpha4-beta2; type: protein-complex assay
[14] = target: T5, Neuronal acetylcholine receptor; alpha3/beta4; test: Inhibitory concentration against Nicotinic acetylcholine receptor alpha3-beta4; type: protein-complex assay
[15] = target: T1, Neuronal acetylcholine receptor; alpha4/beta2; test: as §1; type: protein-complex assay; remark: listed apart in the source
[16] = target: T2, Neuronal acetylcholine receptor; alpha3/beta2; test: Maximal response against Nicotinic acetylcholine receptor alpha3-beta2 expressed in HEK293 cells; type: cell-based
[17] = target: T1, Neuronal acetylcholine receptor; alpha4/beta2; test: Maximal response against Nicotinic acetylcholine receptor alpha4-beta2 expressed in HEK293 cells; type: cell-based
[18] = target: T3, Neuronal acetylcholine receptor; alpha2/beta4; test: Maximal response against Nicotinic acetylcholine receptor alpha2-beta4 expressed in HEK293 cells; type: cell-based
[19] = target: T4, Neuronal acetylcholine receptor; alpha4/beta4; test: Ki or IC50 concentration against Nicotinic acetylcholine receptor alpha4-beta4 expressed in xenopus oocytes; type: cell-based; conditions: Oocyte
[20] = Inhibitory concentration against Nicotinic acetylcholine receptor alpha2-beta4 expressed in xenopus oocytes; type: cell-based; conditions: oocyte
[21] = target: T6, Neuronal acetylcholine receptor subunit alpha-7; test: Inhibitory concentration against Nicotinic acetylcholine receptor alpha-7 expressed in xenopus oocytes; type: cell-based; conditions: xenopus oocyte
[22] = Inhibitory concentration against Nicotinic acetylcholine receptor alpha3-beta4 expressed in xenopus oocytes; type: cell-based; conditions: oocyte
[23] = target: T1, Neuronal acetylcholine receptor; alpha4/beta2; test: Ki or IC50 concentration against Nicotinic acetylcholine receptor alpha4-beta2 expressed in xenopus oocytes; type: cell-based; conditions: Oocyte
[24] = target: T3, Neuronal acetylcholine receptor; alpha2/beta4; test: Effective concentration against Nicotinic acetylcholine receptor alpha2-beta4; type: protein-complex assay
[25] = target: T4, Neuronal acetylcholine receptor; alpha4/beta4; test: Effective concentration against Nicotinic acetylcholine receptor alpha4-beta4; type: protein-complex assay
[26] = target: T5, Neuronal acetylcholine receptor; alpha3/beta4; test: Effective concentration against Nicotinic acetylcholine receptor alpha3-beta4; type: protein-complex assay

T1 sequence (P17787 whole entry): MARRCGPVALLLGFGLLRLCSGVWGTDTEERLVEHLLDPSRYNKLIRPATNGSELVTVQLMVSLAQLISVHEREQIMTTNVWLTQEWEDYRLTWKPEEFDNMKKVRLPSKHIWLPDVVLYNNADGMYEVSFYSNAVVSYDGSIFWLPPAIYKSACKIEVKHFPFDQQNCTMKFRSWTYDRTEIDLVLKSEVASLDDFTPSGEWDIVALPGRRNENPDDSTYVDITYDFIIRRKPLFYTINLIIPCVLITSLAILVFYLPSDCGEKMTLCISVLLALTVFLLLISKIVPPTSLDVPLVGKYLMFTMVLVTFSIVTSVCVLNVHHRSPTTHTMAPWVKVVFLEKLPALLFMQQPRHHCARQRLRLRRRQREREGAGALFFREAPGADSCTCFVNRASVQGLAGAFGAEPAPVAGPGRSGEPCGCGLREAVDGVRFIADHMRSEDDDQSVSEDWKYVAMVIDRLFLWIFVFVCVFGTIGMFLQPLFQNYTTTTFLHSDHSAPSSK
T1 sequence (P43681 whole entry): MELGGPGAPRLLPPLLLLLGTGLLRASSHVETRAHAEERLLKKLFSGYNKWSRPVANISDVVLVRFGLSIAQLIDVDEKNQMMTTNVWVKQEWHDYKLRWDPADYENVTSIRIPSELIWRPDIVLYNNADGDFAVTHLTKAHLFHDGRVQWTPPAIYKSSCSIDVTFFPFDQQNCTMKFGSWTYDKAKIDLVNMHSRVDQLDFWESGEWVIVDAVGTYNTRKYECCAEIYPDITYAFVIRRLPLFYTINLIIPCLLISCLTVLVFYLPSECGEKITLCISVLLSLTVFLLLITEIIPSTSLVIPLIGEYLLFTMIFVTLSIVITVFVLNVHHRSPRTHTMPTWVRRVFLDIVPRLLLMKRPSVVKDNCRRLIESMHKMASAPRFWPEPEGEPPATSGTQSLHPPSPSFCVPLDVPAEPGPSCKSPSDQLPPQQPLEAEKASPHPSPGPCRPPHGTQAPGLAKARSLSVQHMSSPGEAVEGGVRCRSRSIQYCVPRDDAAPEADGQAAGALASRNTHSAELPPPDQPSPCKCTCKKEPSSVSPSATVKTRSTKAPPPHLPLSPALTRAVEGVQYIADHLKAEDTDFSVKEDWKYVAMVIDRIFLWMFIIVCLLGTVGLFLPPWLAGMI
T2 sequence (P17787 whole entry): as the sequence (P17787 whole entry) above
T2 sequence (P32297 whole entry): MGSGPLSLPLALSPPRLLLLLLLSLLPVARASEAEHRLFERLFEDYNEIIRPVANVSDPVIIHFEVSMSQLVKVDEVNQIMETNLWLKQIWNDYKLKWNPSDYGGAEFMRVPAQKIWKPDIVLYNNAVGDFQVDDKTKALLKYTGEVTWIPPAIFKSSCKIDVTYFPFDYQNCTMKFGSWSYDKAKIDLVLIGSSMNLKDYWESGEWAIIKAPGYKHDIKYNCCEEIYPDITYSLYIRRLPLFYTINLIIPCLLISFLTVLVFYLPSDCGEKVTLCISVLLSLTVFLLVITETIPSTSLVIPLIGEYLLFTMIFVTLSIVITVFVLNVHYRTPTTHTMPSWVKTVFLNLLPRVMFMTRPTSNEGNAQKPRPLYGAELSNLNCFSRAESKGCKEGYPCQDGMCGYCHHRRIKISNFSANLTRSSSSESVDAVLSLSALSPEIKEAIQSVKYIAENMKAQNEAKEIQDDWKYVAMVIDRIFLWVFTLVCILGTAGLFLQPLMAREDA
T6 sequence (P36544 whole entry): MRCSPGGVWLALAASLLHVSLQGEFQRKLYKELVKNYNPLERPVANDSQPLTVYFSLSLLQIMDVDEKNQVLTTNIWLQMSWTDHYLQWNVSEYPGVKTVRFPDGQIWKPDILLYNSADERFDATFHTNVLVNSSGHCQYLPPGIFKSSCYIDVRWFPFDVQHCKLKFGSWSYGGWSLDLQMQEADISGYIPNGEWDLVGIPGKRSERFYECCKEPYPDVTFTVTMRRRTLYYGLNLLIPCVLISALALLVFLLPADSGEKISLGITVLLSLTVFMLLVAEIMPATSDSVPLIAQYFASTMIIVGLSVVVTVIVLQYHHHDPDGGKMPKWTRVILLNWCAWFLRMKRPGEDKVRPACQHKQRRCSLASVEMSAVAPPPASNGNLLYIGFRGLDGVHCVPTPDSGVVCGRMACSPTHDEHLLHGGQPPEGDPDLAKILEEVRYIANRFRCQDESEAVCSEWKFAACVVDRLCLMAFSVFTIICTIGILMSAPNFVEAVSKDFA
Chain of Neuronal acetylcholine receptor subunit alpha-7 (Rattus norvegicus) (Q05941 whole entry): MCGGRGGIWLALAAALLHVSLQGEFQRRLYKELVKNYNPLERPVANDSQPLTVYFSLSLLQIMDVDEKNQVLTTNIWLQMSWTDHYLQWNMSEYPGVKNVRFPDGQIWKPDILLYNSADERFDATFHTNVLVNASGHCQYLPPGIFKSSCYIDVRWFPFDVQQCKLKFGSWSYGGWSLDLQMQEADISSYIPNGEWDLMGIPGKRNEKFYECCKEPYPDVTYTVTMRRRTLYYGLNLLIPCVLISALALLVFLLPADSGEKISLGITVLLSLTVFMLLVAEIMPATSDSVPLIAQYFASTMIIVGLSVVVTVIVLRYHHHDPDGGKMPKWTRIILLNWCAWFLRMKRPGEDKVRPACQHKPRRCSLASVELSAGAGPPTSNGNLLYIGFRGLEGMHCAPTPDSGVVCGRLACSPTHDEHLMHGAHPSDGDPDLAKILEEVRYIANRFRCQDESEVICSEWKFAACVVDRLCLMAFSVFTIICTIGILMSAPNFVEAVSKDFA
T5 sequence (P30926 whole entry): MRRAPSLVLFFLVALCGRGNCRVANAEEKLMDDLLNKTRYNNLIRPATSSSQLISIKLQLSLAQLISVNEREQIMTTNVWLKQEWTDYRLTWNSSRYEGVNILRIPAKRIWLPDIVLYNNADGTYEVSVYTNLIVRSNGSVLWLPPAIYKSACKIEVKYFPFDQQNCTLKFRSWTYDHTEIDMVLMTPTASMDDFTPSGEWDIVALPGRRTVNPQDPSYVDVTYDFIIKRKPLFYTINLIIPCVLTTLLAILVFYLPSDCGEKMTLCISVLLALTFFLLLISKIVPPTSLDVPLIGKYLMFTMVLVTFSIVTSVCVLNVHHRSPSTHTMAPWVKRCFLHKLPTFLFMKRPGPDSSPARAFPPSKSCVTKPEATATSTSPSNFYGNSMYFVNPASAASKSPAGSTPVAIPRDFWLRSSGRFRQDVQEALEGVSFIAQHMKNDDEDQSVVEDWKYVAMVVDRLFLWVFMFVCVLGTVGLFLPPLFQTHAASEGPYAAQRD
T5 sequence (P32297 whole entry): as the sequence (P32297 whole entry) above
T3 sequence (P30926 whole entry): as the sequence (P30926 whole entry) above
T3 sequence (Q15822 whole entry): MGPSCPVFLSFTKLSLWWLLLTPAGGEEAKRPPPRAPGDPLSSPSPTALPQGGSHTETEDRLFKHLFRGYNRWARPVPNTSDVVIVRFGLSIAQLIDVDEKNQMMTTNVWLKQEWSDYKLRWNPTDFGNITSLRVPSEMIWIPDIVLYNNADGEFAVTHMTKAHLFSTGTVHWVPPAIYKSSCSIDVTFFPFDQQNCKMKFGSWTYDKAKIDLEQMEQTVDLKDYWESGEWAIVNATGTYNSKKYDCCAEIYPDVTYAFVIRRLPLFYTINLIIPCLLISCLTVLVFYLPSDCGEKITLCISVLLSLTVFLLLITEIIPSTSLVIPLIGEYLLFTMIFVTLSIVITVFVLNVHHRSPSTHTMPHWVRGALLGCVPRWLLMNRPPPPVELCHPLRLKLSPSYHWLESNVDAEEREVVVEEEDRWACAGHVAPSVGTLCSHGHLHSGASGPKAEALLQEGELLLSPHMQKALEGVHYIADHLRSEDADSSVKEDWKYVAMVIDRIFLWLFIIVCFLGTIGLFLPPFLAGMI
T4 sequence (P30926 whole entry): as the sequence (P30926 whole entry) above
T4 sequence (P43681 whole entry): as the sequence (P43681 whole entry) above

c1cnc2c(c1)O[C@H]1CCN3CC[C@@]1(C2)C3 [DIANICLINE]
EC50 [1]: > 100 µM
Rmax [2]: 19%
EC50 [3]: > 100 µM

Clc1ccc(C2=CCC[C@H]3CCC2N3)cn1
Rmax [4]: 50%
Rmax [2]: 15%
Rmax [5]: 70%
Rmax [6]: 50%
Rmax [7]: 50%
Rmax [8]: 55%

CN1CCC[C@H]1CCSc1ccc(O)cc1
EC50 [9]: > 10 µM
Rmax [4]: 102%
Rmax [2]: 13%
Rmax [5]: 62%
Rmax [6]: 71%
Rmax [7]: 9%

CN(C)c1ccc(/C=C/C=C2\CCCN=C2c2cccnc2)cc1
Rmax [2]: 0%
Rmax [8]: 76%

O=c1c(I)ccc2n1C[C@@H]1CNC[C@H]2C1
Rmax [2]: 47%
Rmax [5]: 105%
Rmax [8]: 107%

O=c1c(Br)ccc2n1C[C@@H]1CNC[C@H]2C1
Rmax [2]: 23%
Rmax [5]: 70%
Rmax [8]: 100%

COc1cc2c(cn1)C1NCCC1CC2 (stereo unspecified)
EC50 [9]: > 300 µM
Rmax [4]: 22%
Rmax [2]: 8%
Rmax [5]: 44%
Rmax [6]: 5%

CNC1(C)C2CCC(C2)C1(C)C (stereo unspecified) [MECAMYLAMINE]
IC50 [10]: 3.1 µM and 16 µM
IC50 [11]: 12.3 µM
IC50 [12]: 0.28 µM
Concentration [13]: 0.78 µM

C[C@H](NC(=O)[C@H](C)NC(=O)[C@H](CS)NC(=O)[C@H](C)NC(=O)[C@@H]1CCCN1C(=O)[C@H](Cc1c[nH]cn1)NC(=O)[C@H](CO)NC(=O)[C@H](CS)NC(=O)[C@H](CS)NC(=O)CNC(=O)CN)C(=O)N[C@@H](CC(N)=O)C(=O)N[C@@H](CC(N)=O)C(=O)N[C@@H](CCC(N)=O)C(=O)N[C@@H](CC(=O)O)C(=O)N[C@@H](Cc1ccc(O)cc1)C(=O)N[C@@H](CS)C(N)=O
IC50 [14]: 0.0003 µM
IC50 [11]: 0.0003 µM
IC50 [12]: 0.0003 µM
IC50 [15]: 0.0003 µM

H-AGGSDRRCRWR-NH2
IC50 [11]: 0.441 µM

Fc1ccc(C2CC3CCC2N3)cn1 (stereo unspecified)
Rmax [2]: 41%
Rmax [5]: 131%
Rmax [6]: 40%

Clc1ccc(OC[C@H]2CCN2)cn1
Rmax [6]: 116%

Clc1ccc(C2CC3CCC2N3)cn1 (stereo unspecified)
Rmax [16]: 163%
Rmax [17]: 117%
Rmax [18]: 115%
Rmax [5]: 99% and 85%
Rmax [8]: 97%

CO[C@@H]1CC=C2CCN3CCC4=C(CC(=O)OC4)[C@@]23C1
Concentration [19]: 0.01 µM
IC50 [20]: 3.6 µM
IC50 [14]: 43 µM and 240 µM
IC50 [11]: 98 µM
Concentration [21]: 20 µM
IC50 [22]: 14 µM
Concentration [23]: 0.11 µM
Concentration [13]: 2.7 µM

CSCC[C@H](NC(=O)[C@H](CC(N)=O)NC(=O)[C@H](CS)NC(=O)[C@@H]1CCCN1C(=O)[C@H](CCCNC(=N)N)NC(=O)[C@H](CC(=O)O)NC(=O)[C@H](CO)NC(=O)[C@H](CS)NC(=O)[C@H](CS)NC(=O)CN)C(=O)N[C@@H](CC(N)=O)C(=O)N[C@@H](CC(N)=O)C(=O)N1CCC[C@H]1C(=O)N[C@@H](CC(=O)O)C(=O)N[C@@H](Cc1ccc(O)cc1)C(=O)N[C@@H](CS)C(N)=O (H-GCCSDRPCNMNNPDYC-NH2)
IC50 [14]: 0.03 µM
IC50 [11]: 0.03 µM
IC50 [12]: 0.03 µM

C[N+](C)(C)CCO
Rmax [8]: 90% and 100%

C#Cc1cncc([C@@H]2CCCN2C)c1 [ALTINICLINE]
EC50 [24]: 3.2 µM
EC50 [9]: > 10 µM
EC50 [1]: 0.32 µM
Rmax [4]: 49%
Rmax [2]: 49%
EC50 [25]: 2 µM
Rmax [5]: 26%
EC50 [3]: 3.2 µM
Rmax [6]: 52%
EC50 [26]: 10 µM

O=C(NC1CN2CCC1CC2)c1ccc(-c2ccsc2)s1 (stereo unspecified)
EC50 [1]: > 10 µM
EC50 [25]: > 10 µM
EC50 [26]: > 10 µM
Rmax [8]: 100%

C[C@H](NC(=O)[C@H](Cc1ccccc1)NC(=O)[C@H](CS)NC(=O)[C@@H]1CCCN1C(=O)[C@@H]1CCCN1C(=O)[C@H](Cc1ccc(O)cc1)NC(=O)[C@H](CO)NC(=O)[C@H](CS)NC(=O)[C@H](CS)NC(=O)CN)C(=O)N[C@H](C(=O)N[C@@H](CC(N)=O)C(=O)N[C@@H](CO)C(=O)N[C@@H](CC(=O)O)C(=O)N[C@@H](Cc1ccc(O)cc1)C(=O)N[C@@H](CS)C(N)=O)[C@@H](C)O
IC50 [14]: > 0.75 µM

CC(=O)CCN1C[C@@H]2C[C@H](C1)c1cccc(=O)n1C2
Rmax [2]: 3%
Rmax [6]: 11%
Rmax [8]: > 100%
